Assay results: US8227240B2, “Systems for screening pharmaceutical chemicals” (The Washington University, priority 2001, dated 2012)

What was measured:
[1] = test system: cardiac fibroblasts; assay: Mechanical tests of tissue model rings cultured with MMP inhibitor; format: cell-based; details: 50 μM GM6001 for 6 days
Experimental: The tissue models made using cardiac fibroblasts are incubated with 50 .μM GM6001 for 6 days. The tissue culture medium is replenished every other day with fresh medium containing GM6001. The tissue model rings were subjected to mechanical tests as described above.

[2] = target: MMPs; details: purified system; cited from earlier work
[3] = test system: animals; details: in vivo; cited from earlier work

Question: For `CNC(=O)[C@H](Cc1c[nH]c2ccccc12)NC(=O)[C@@H](CC(=O)NO)CC(C)C` [GM6001, N-[(2R)-2-(Hydroxamid-ocarbonylmethyl)-4-methylpentanoyl]-L-tryptophan methylamide], which “mechanical properties of tissue model rings compared to controls” value [1] is on record?
Answer: Its value is “significant reduction”.

Question: And the “Ki values for different MMPs” value [2]?
Answer: The value was “around nmol/l”.

Question: And the “concentration of inhibitor at which effects in animals can be observed” value [3]?
Answer: Its value is “sub mmol/l”.
